Test results reported in US6066340A, “Process for the preparation of microspheres containing biologically active components” (Fidia S.p.A., priority 1991, dated 2000).

Experiment: GM1 plasma levels after intramuscular administration
Type: in vivo, New Zealand rabbits
Conditions: 2 mg/kg i.m.
Protocol: Microspheres of different dimensions of HYAFF-11 containing GM1 (10-40 μm) were prepared as described in Examples 29-30.
The ganglioside was administered by intramuscular route to groups of New Zealand rabbits (weighing 2.5 kg) at a concentration of 2 mg/kg.
At the set times, 2.5 ml of blood was withdrawn from the median artery of the ear. Each blood sample was incubated at 37° C. for one hour and then refrigerated overnight at 4° C. The samples were then centrifuged and the upper layer of serum was removed. 2 ml of tetrahydrofurane (THF) were added to 500 μl of serum for the determination of the GM1 content. The sample was stirred and centrifuged and the upper layer was stored. The precipitate was treated twice with […] of THF and 500 μl of phosphate buffer (50 mM) and centrifuged. The upper layers thus obtained were extracted with ethyl ether after separation of the aqueous phase, the organic phase was further extracted with water. The two aqueous phases were then mixed and freeze-dried. The freeze-dried product was redissolved in water and the GM1 content determined by the ELISA test.

With monosialoganglioside GM1 as the substance, how does the “Area under curve after i.m. administration of GM1” value (1st study) read?
Its value is 127.74 µg/h/mL.

What about the “Area under curve after i.m. administration of GM1” value (2nd study) of the same substance?
Its value is 134.43 µg/h/mL.
